Experimental data taken from patent US20230203041A1, “ANTAGONISTS OF THE ADENOSINE A2A RECEPTOR” (AdoRx Therapeutics Limited, priority 2020, published 2023).
Counter-ions that a name gives are not always drawn.

Columns and labels:
[1] = molecular target: T1, human Adenosine A2b receptor (Homo sapiens, UniProt P29275); experiment: Adenosine receptor TR-FRET binding assay (CA200645 displacement), A2b; details: 30 nM CA200645, CHO cell membranes, 2 hours at room temperature
T1 construct: expressed in transfected cells; host or cells: CHO cell membranes
T1 sequence (P29275 1-332): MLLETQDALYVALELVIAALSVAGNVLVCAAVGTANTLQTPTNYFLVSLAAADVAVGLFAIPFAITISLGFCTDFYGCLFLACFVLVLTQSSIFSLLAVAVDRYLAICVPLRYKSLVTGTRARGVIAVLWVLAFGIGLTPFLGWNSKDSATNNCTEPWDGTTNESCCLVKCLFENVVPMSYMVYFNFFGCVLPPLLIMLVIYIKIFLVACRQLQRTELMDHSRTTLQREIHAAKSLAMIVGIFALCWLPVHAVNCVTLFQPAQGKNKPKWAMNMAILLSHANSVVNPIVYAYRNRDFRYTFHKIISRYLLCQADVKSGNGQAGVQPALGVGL
Description: All FRET binding experiments were conducted at room temperature in white 384-well plates, in assay binding buffer containing 1×LabMed (Cisbio, France), 100 μg/mL saponin, 1% DMSO and 0.02% pluronic acid. Binding of the fluorescently labelled Adenosine receptor antagonist XAC (CA200645, FRET acceptor) to terbium-labelled A1, A2a, A2b and A3 adenosine receptors (FRET donors) was detected by time-resolved FRET due to the close proximity of the donor and acceptor in a binding event. To investigate the ability of unlabelled test compounds to bind to Adenosine A1, A2a, A2b and A3 receptors, dose response curves were constructed that determined the ability of a range of concentrations to inhibit the binding of 30 nM CA200645 to the A2b receptor and 100 nM CA200645 to the A1, A2a, and A3 receptor.
Serial dilution (1:3 dilutions) of test compounds in neat DMSO and transfer of a 400 nL sample of test compound into the assay plate was carried out using the Mosquito (TTP Labtech, UK). The compound samples were incubated for 2 hours at room temperature with a fixed concentration of CA200645 defined for each receptor (see above) and CHO cell membranes containing the human Adenosine A1 (0.5 μg/well), A2a (0.3 μg/well), A2b (1 μg/well) or A3 (1 μg/well) receptor in 40 μL of assay buffer. Total and non-specific binding of CA200645 was determined in the absence and presence of 10 μM XAC, respectively. Following 2 hours incubation, the level of CA200645 binding was detected on a Pherastar FSX (BMG Labtech, Germany) using standard TR-FRET settings. The terbium donor was excited with three laser flashes at a wavelength of 337 nm, and donor and acceptor emission was detected at 620 nm and 665 nm wavelengths, respectively. FRET ratios were obtained by multiplying the acceptor/donor ratio value by 10,000. Specific binding was determined by subtracting the non-specific binding FRET ratio from the total binding FRET ratio. Compound IC50 curves were analysed using GraphPad Prism 7.0 (GraphPad, USA) and Ki affinity values were determined from the obtained IC50 values using the method of Cheng and Prusoff.

[2] = molecular target: T2, human Adenosine A2a receptor (Homo sapiens, UniProt P29274); experiment: Adenosine receptor TR-FRET binding assay (CA200645 displacement), A2a; details: 100 nM CA200645, CHO cell membranes, 2 hours at room temperature
T2 construct: expressed in transfected cells; host or cells: CHO cell membranes

[3] = molecular target: T3, human Adenosine A3 receptor (Homo sapiens, UniProt P0DMS8); experiment: Adenosine receptor TR-FRET binding assay (CA200645 displacement), A3
T3 sequence (P0DMS8 1-318): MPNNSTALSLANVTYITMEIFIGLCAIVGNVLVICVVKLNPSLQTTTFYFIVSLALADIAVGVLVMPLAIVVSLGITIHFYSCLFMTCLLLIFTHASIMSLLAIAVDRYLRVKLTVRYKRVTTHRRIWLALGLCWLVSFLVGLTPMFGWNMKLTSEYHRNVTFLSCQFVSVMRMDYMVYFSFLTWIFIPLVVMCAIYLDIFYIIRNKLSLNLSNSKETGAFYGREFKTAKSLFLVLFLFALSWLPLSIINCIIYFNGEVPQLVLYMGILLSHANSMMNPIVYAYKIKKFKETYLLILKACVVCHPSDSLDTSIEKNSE

[4] = molecular target: T4, human Adenosine A1 receptor (Homo sapiens, UniProt P30542); experiment: Adenosine receptor TR-FRET binding assay (CA200645 displacement), A1
T4 sequence (P30542 1-326): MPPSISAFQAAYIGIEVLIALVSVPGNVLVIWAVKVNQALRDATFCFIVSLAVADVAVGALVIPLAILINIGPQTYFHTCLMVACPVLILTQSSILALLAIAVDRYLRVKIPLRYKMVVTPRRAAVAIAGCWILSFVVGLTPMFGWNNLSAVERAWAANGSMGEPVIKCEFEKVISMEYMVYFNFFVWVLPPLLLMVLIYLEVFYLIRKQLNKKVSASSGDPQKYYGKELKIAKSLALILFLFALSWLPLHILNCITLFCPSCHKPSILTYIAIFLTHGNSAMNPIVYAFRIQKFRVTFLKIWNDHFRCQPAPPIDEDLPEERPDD

T2 sequence (P29274 whole entry): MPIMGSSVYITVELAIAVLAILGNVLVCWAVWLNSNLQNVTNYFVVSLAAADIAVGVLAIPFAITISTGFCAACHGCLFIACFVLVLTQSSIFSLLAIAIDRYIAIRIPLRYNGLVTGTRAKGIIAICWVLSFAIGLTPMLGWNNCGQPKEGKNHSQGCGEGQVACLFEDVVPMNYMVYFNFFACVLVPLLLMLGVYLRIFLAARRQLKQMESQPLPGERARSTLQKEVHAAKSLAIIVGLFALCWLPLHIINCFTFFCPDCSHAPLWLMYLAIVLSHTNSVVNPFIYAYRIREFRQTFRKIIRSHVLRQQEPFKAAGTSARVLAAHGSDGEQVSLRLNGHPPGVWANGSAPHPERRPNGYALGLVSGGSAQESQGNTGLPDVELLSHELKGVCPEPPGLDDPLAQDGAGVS

Structure (SMILES)	Ki [1] [µM]	Ki [2] [µM]	Ki [3] [µM]	Ki [4] [µM]
CCn1nc(C)cc1-c1c(-c2cccc(C#N)c2)nn2ccc(C(=O)NCC(C)(C)O)nc12 [Example 12.1, 2-(3-Cyanophenyl)-3-(2-ethyl-5-methyl-pyrazol-3-yl)-N-(2-hydroxy-2-methyl-propyl)pyrazolo[1,5-a]pyrimidine-5-carboxamide]	1.57			
CC(C)(O)CNC(=O)c1ccn2nc(-c3cccc(C#N)c3)c(-c3ccncn3)c2n1 [Example 13, 2-(3-Cyanophenyl)-N-(2-hydroxy-2-methyl-propyl)-3-pyrimidin-4-yl-pyrazolo[1,5-a]pyrimidine-5-carboxamide]		0.0671	> 1	
CC(C)(O)CNC(=O)c1ccn2nc(-c3cccc(C#N)c3)c(C#N)c2n1 [Example 14, 3-Cyano-2-(3-cyanophenyl)-N-(2-hydroxy-2-methyl-propyl)pyrazolo[1,5-a]pyrimidine-5-carboxamide]		0.218	> 1	
CC(C)(C)OC(=O)N1CCC[C@@H]1CNc1ccn2nc(-c3ccco3)c(C#N)c2n1 [Example 37.2, tert-butyl (2R)-2-[[[3-cyano-2-(2-furyl)pyrazolo[1,5-a]pyrimidin-5-yl]amino]methyl]pyrrolidine-1-carboxylate]		0.0192	1.93	0.103
N#Cc1c(-c2ccco2)nn2ccc(N3CCN(CCF)CC3)nc12 [Example 37.3]		0.0226	> 1	0.262
N#Cc1c(-c2ccco2)nn2ccc(N3CCN(CCc4ccccc4)CC3)nc12 [Example 37.6]		0.0454	> 1	0.363
N#Cc1c(-c2ccco2)nn2ccc(N3CCN(Cc4ccccn4)CC3)nc12 [Example 37.7]		0.0493	7.85	0.154
CN1CCN(c2ccn3nc(-c4ccco4)c(C#N)c3n2)CC1 [Example 37.8]		0.0624	> 1	0.426
C[C@H]1CN(c2ccn3nc(-c4ccco4)c(C#N)c3n2)CCN1C(=O)OC(C)(C)C [Example 37.11]		0.171	2.72	2.17
NC(=O)c1c(-c2ccco2)nn2ccc(N3CCN(CCF)CC3)nc12 [Example 39, 5-[4-(2-Fluoroethyl)piperazin-1-yl]-2-(2-furyl)pyrazolo[1,5-a]pyrimidine-3-carboxamide]		0.0389	> 1	2.58
CN(C)C1CN(c2ccn3nc(-c4ccco4)c(C(N)=O)c3n2)C1 [Example 39.1, 5-[3-(Dimethylamino)azetidin-1-yl]-2-(2-furyl)pyrazolo[1,5-a]pyrimidine-3-carboxamide]		0.127	> 1	1.34
Nc1ccn2nc(-c3ccco3)c(Br)c2n1 [Example 50, 3-Bromo-2-(2-furyl)pyrazolo[1,5-a]pyrimidin-5-amine]		0.151	3.07	0.459
Cn1ccnc1CN1CCN(c2ccn3nc(-c4ccco4)c(C#N)c3n2)CC1 [Example 51.2, 2-(2-Furyl)-5-[4-[(1-methylimidazol-2-yl)methyl]piperazin-1-yl]pyrazolo [1,5-a]pyrimidine-3-carbonitrile]		0.0549	> 1	0.104
N#Cc1c(-c2ccco2)nn2ccc(N3CCN(CCO)CC3)nc12 [Example 52, 2-(2-Furyl)-5-[4-(2-hydroxyethyl)piperazin-1-yl]pyrazolo[1,5-a]pyrimidine-3-carbonitrile]		0.114	> 1	1.15
COC(=O)/C=C/c1c(-c2ccco2)nn2ccc(NCc3ccccc3)nc12 [Example 54, Methyl (E)-3-[5-(benzylamino)-2-(2-furyl)pyrazolo[1,5-a]pyrimidin-3-yl]prop-2-enoate]		0.0347	0.068	0.018
O=C(O)/C=C/c1c(-c2ccco2)nn2ccc(NCc3ccccc3)nc12 [Example 54.1, (E)-3-[5-(Benzylamino)-2-(2-furyl)pyrazolo[1,5-a]pyrimidin-3-yl]prop-2-enoic acid]		0.102	6.18	0.856
Cc1cccnc1CN1CCN(c2ccn3nc(-c4cccc(C#N)c4)c(C#N)c3n2)CC1 [Example 59, 2-(3-Cyanophenyl)-5-[4-[(3-methyl-2-pyridyl)methyl]piperazin-1-yl]pyrazolo[1,5-a]pyrimidine-3-carbonitrile]		0.0175	3.68	1.03
N#Cc1c(-c2cccc(F)c2)nn2ccc(N3CCN(CCF)CC3)nc12 [Example 61, 5-[4-(2-Fluoroethyl)piperazin-1-yl]-2-(3-fluorophenyl)pyrazolo[1,5-a]pyrimidine-3-carbonitrile]		0.0379	4.92	0.042
N#Cc1c(-c2cnco2)nn2ccc(N3CCN(CCF)CC3)nc12 [Example 62, 5-[4-(2-Fluoroethyl)piperazin-1-yl]-2-oxazol-5-yl-pyrazolo[1,5-a]pyrimidine-3-carbonitrile]		0.365	> 1	
N#Cc1c(-c2ccc(F)cc2)nn2ccc(NCc3ccccc3)nc12 [Example 63, 5-(Benzylamino)-2-(4-fluorophenyl)pyrazolo[1,5-a]pyrimidine-3-carbonitrile]		0.0491	0.065	0.024
Cc1cccnc1CN1CCN(c2ccn3nc(-c4cnco4)c(C#N)c3n2)CC1 [Example 65, 5-[4-[(3-Methyl-2-pyridyl)methyl]piperazin-1-yl]-2-oxazol-5-yl-pyrazolo[1,5-a]pyrimidine-3-carbonitrile]		0.407	> 1	2.48
Fc1cccc(-c2cc3nc(NCCN4Cc5ccccc5C4)ccn3n2)c1 [Example 66.4, 2-(3-Fluorophenyl)-N-(2-isoindolin-2-ylethyl)pyrazolo[1,5-a]pyrimidin-5-amine]		0.706	2.9	0.803
Fc1cccc(-c2nn3ccc(Cl)nc3c2Br)c1 [Example 68, 3-Bromo-5-chloro-2-(3-fluorophenyl)pyrazolo[1,5-a]pyrimidine]		0.572	> 1	
Ic1c(-c2ccco2)nn2ccc(NCc3ccccc3)nc12 [Example 77, N-Benzyl-2-(2-furyl)-3-iodo-pyrazolo[1,5-a]pyrimidin-5-amine]		0.0464	0.135	1.43
CN1CCC[C@@H]1CNc1ccn2nc(-c3ccco3)c(C#N)c2n1 [Example 81, 2-(2-Furyl)-5-[[(2R)-1-methylpyrrolidin-2-yl]methylamino]pyrazolo[1,5-a]pyrimidine-3-carbonitrile]		0.202	> 1	1.26
C[C@@H]1CN(c2ccn3nc(-c4ccco4)c(C#N)c3n2)CCN1 [Example 82, 2-(2-Furyl)-5-[(3R)-3-methylpiperazin-1-yl]pyrazolo[1,5-a]pyrimidine-3-carbonitrile hydrochloride]		0.665	> 1	4.33
CC(C)(C)OC(=O)N1CCC(c2ccn3nc(-c4ccco4)c(C#N)c3n2)CC1 [Example 83, Tert-butyl 4-[3-cyano-2-(2-furyl)pyrazolo[1,5-a]pyrimidin-5-yl]piperidine-1-carboxylate]		0.694	> 1	
c1ccc(CNc2ncn3nc(-c4ccco4)cc3n2)cc1 [Example 84, N-Benzyl-7-(2-furyl)pyrazolo[1,5-a][1,3,5]triazin-2-amine]		0.16	0.231	0.389
O=C(NCc1ccccc1)c1ccn2nc(-c3ccco3)cc2n1 [Example 85, N-Benzyl-2-(2-furyl)pyrazolo[1,5-a]pyrimidine-5-carboxamide]		0.493	> 1	0.366
N#Cc1cccc(-c2nn3ccc(NCCN4CCN(c5ccccc5)CC4)nc3c2C#N)c1 [Example 87.1, 2-(3-Cyanophenyl)-5-[2-(4-phenylpiperazin-1-yl)ethylamino]pyrazolo [1,5-a]pyrimidine-3-carbonitrile]		0.0163	> 1	0.213
